Experimental data reported in patent US9371337B2, “β-lactamase inhibitors” (The Regents of the University of California, priority 2011, dated 2016).

Experiments:
AmpC β-lactamase [1] = biological target: T1, AmpC β-lactamase (Escherichia coli, UniProt P00811); assay type: biochemical; settings: for type of inhibition: Lineweaver-Burk analysis, competition with substrate CENTA; for time dependence of inhibition (incubation effect, off-rate): enzyme incubation and dilution experiments
T1 construct: made in house

Trypsin [2] = biological target: T2, Trypsin (UniProt P00760); test: Trypsin inhibition; assay type: biochemical; settings: Table 10, Trypsin
T2 construct: IC50 (Estimated from single concentration measurement); Ki
T2 sequence (P00760 1-246): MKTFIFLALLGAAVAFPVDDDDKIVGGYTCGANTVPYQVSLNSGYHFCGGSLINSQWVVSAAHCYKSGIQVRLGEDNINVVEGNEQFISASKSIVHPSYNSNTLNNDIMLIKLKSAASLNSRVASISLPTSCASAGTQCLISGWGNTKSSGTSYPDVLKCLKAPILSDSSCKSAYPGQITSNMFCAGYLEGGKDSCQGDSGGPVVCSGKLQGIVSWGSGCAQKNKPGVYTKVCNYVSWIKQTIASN
Source text: (§1) To assess the selectivity of the new molecules we determined Ki values against three common serine proteases, Trypsin, Elastase and α-Chymotrypsin, as well as that of a class A β-lactamase, CTX-M-9 (Table 10) (Pouvreau L, et al. (1998), FEBS Lett 423:167-172; Del Mar E G, et al. (1980), Biochemistry 19:468-472; Rodriguez-Martinez J A, et al. (2009), Biotechnol Lett 31:883-887; Chen Y, et al. (2005), J Mol Biol 348:349-362).

CTX-M-9 β-lactamase = CTX-M-9 β-lactamase (Escherichia coli, UniProt Q9L5C8); test: biochemical; assay type: biochemical; settings: for Ki: Table 8, read-out: Ki vs CTX-M-9; for Selectivity vs AmpC (comparison of IC50 values): Table 4h, CTX-M-9 vs AmpC; for potency estimated from few doses: read-out: IC50 (Estimated from single concentration measurement); for inhibition at 16 µM: read-out: Percentage inhibition with 16 μM inhibitor
Procedure: Reactions were initiated by the addition of 0.3 nM enzyme and monitored at 405 nm.
as §1

Trypsin [3] = biological target: T2, Trypsin; test: Trypsin inhibition; assay type: biochemical; settings: for Percentage activity with 100 μM inhibitor: Table 4b; for Percentage inhibition with 100 μM inhibitor: Table 4c; for potency estimated from few doses: read-out: IC50 (Estimated from single concentration measurement), Table 4e
Trypsin [4] = test: Trypsin inhibition; assay type: biochemical; settings: Table 4h, Trypsin vs AmpC
AmpC β-lactamase [5] = biological target: T1, AmpC β-lactamase; test: biochemical; assay type: biochemical
Procedure: FIG. 18. Representative IC50 curves. […] IC50 curves were obtained by measuring rates (in duplicates) at different inhibitor concentrations (x-axis) and by determining the residual activity (y-axis, in percentage). IC50 values were determined by non-linear regression and Ki values calculated using GraphPad software assuming competitive inhibition.
Sulfonamidomethaneboronic acids were dissolved in 100% DMSO at a concentration of 100 mM; more diluted stocks were prepared as necessary. […] The enzyme was expressed and purified as described (Usher, K. C. et al., Biochemistry 1998, 37, 16082-16092) and CENTA was purchased from Tydock Pharma.
Kinetic measurements were run at room temperature in 50 mM sodium-cacodylate pH 6.5 in the presence of 0.01% Triton-X to prevent non-specific inhibition via compound aggregation. […] (Kettner, C. A. and Shenvi, A. B., J. Biol. Chem. 1984, 259, 15106-15114) Reactions were performed in 1 mL cuvettes with 60 μM CENTA and initiated by adding 1.2 nM enzyme. […] (Weston, G. S. et al., J. Med. Chem. 1998, 41, 4577-4586) The first 180 sec of each reaction were used to measure initial rates. IC50 values were obtained by fitting binding data to a sigmoidal dose-response equation using GraphPad Prism (GraphPad software, Inc). Ki values were determined by the use of Cheng-Prusoff equation. (Cheng, Y. and Prusoff, W. H., Biochem. Pharmacol. 1973, 22, 3099-3108)

[6] = biological target: T3, α-chymotrypsin (bovine pancreatic) (Bos taurus, UniProt P00766); test: α-Chymotrypsin inhibition; assay type: biochemical; settings: for activity at 100 µM: Table 4b, 100 μM inhibitor, read-out: Percentage activity with 100 μM inhibitor; for potency estimated from few doses: Table 4e, read-out: IC50 (Estimated from single concentration measurement); for Ki: Table 10, α-Chymotrypsin; for Selectivity vs AmpC (comparison of IC50 values): Table 4h, Chymotrypsin vs AmpC; for inhibition at 100 µM: read-out: Percentage inhibition with 100 μM inhibitor
T3 construct: purchased Sigma-Aldrich
Procedure: α-Chymotrypsin assays were performed in 50 mM Tris buffer pH 7.5 with 0.01% Triton-X. Inhibitor and 0.001 mg/mL enzyme were incubated at their final concentration for 10 min before the reaction was initiated by the addition of 200 μM N-succinyl-Ala-Ala-Pro-Phe p-nitroanilide and monitored at 410 nm.
as §1

Elastase = Elastase inhibition; assay type: biochemical; settings: Table 4h, Elastase vs AmpC
Source text: as §1

[7] = tested on: clinical strains resistant to third-generation cephalosporins; test: MIC distribution of third-generation cephalosporins alone or with compounds over clinical strains; assay type: cell-based; settings: for clinical isolates for which MICs dropped into the susceptible range (MICs≦1 μg/mL): cephalosporins combined with the compound; for MIC 25% percentile / MIC 75% percentile: third-generation cephalosporins in combination with the compound
Procedure: The anti-resistance activity of inhibitors was investigated by the determination of the minimum inhibitory concentrations (MICs) of the β-lactam/inhibitor combination necessary to inhibit the growth of clinically-isolated bacteria resistant to third-generation cephalosporins via expression of class A or class C β-lactamases (Table 6).
Susceptibility testing was performed and interpreted following the guidelines of CLSI. (Clinical and Laboratory Standards Institute, Performance standards for antimicrobial susceptibility testing, 20th Informational Supplement, M100-S20 2010) The compounds were dissolved in 50% DMSO, and dilutions were performed using Muller-Hinton medium. An adequate final concentration was obtained to determine the minimum inhibitory concentrations (MICs). The concentration of DMSO was maintained below 5%. The inhibitors were tested for synergy with the third-generation β-lactams ceftazidime and cefotaxime against several clinical bacteria. The ratio of β-lactams to inhibitors was 1:4. Each value reported reflects the average of three independent experiments. […] The Friedman's test and the Wilcoxon signed rank test were used to compare MIC values. Statistical significance was established at p<0.05.

[8] = Ki (from multi- or single concentration measurements), Table 4g

Sequence of CTX-M-9 β-lactamase (Q9L5C8 29-291): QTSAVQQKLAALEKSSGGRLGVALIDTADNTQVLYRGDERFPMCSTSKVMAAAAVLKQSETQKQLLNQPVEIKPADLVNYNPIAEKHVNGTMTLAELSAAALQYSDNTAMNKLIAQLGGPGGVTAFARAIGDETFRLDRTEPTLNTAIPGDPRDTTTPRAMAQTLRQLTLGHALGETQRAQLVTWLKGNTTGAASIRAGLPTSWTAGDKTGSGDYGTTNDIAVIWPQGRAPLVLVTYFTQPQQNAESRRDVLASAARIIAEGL
T1 sequence (P00811 20-377): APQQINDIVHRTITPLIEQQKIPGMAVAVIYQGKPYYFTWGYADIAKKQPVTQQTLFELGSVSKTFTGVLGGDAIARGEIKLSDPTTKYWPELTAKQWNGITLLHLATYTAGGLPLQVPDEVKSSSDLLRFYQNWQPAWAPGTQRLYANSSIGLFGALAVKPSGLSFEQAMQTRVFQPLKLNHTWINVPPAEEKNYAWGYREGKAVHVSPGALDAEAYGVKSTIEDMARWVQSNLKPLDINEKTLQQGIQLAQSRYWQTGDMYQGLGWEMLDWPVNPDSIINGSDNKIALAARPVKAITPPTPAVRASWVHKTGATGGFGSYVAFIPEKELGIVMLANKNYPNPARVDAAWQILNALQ

`O=S(=O)(NCB(O)O)c1ccc(-c2nnn[nH]2)cc1` [CR157, [4-(3-tetrazol-5-yl)benzensulfonylamino]methaneboronic acid] was tested, and the type of inhibition (AmpC β-lactamase [1]) was “competitive”, the “time dependence of inhibition (incubation effect, off-rate)” value (AmpC β-lactamase [1]) was “incubation effect owing to slow off-rates” and the Ki (Trypsin [2]) was 350 µM. For the same compound, the IC50 (CTX-M-9 β-lactamase) was 10.5 µM, the Ki (CTX-M-9 β-lactamase) was 2.5 µM and the “Selectivity vs AmpC (comparison of IC50 values)” value (“Selectivity vs AmpC” for short) (CTX-M-9 β-lactamase) was 1694. The potency estimated from few doses (CTX-M-9 β-lactamase) was 6 µM, the inhibition at 16 µM (CTX-M-9 β-lactamase) was 73% and the “Percentage activity with 100 μM inhibitor” value (Trypsin [3]) was 95. The “Percentage inhibition with 100 μM inhibitor” value (Trypsin [3]) was 5, the potency estimated from few doses (Trypsin [3]) was 1900 µM and the “Selectivity vs AmpC” value (Trypsin [4]) was 306452. It also gave an IC50 (AmpC β-lactamase [5]) of 0.0062 µM, a Ki (AmpC β-lactamase [5]; Ki) of 0.0008 to 0.0013 µM and a Ki (AmpC β-lactamase [5]; [8]) of 0.0012 µM. For the same compound, the Ki (AmpC β-lactamase [5]; Ki Vs AmpC, Table 7) was 0.0012 µM, the Ki (AmpC β-lactamase [5]; Ki vs AmpC, Table 8) was 0.0012 µM and the Ki (AmpC β-lactamase [5]; Ki, Table 5) was 0.0012 µM. The Ki (AmpC β-lactamase [5]; Ki, Table 10, AmpC) was 0.0012 µM, the Ligand efficiency (AmpC β-lactamase [5]; Table 5) was 0.63 and the activity at 100 µM [6] was 90%. For the same compound, the potency estimated from few doses [6] was 900 µM, the Ki [6] was 224 µM and the “Selectivity vs AmpC” value [6] was 145161. The inhibition at 100 µM [6] was 10%, the “Selectivity vs AmpC” value (Elastase) was 31309 and the “clinical isolates for which MICs dropped into the susceptible range (MICs≦1 μg/mL)” value [7] was 25%. The “MIC 25% percentile” value [7] was 1.5 µg/mL and the “MIC 75% percentile” value [7] was 4.0 µg/mL.

In the case of `O=S(=O)(NCB(O)O)c1ccc(-c2nn[nH]n2)nc1` [CR161, [6-(3-tetrazol-5-yl)pyridin-3-sulfonylamino]methaneboronic acid hydrocloride], the type of inhibition (AmpC β-lactamase [1]) is reported as “competitive”, the “time dependence of inhibition (incubation effect, off-rate)” value (AmpC β-lactamase [1]) is reported as “incubation effect owing to slow off-rates” and the Ki (Trypsin [2]) is reported as 350 µM. For the same compound, the IC50 (CTX-M-9 β-lactamase) was 6.7 µM, the Ki (CTX-M-9 β-lactamase) was 3.9 µM and the “Selectivity vs AmpC” value (CTX-M-9 β-lactamase) was 1015. The potency estimated from few doses (CTX-M-9 β-lactamase) was 8 µM, the inhibition at 16 µM (CTX-M-9 β-lactamase) was 66% and the “Percentage activity with 100 μM inhibitor” value (Trypsin [3]) was 95. For the same compound, the “Percentage inhibition with 100 μM inhibitor” value (Trypsin [3]) was 5, the potency estimated from few doses (Trypsin [3]) was 1900 µM and the “Selectivity vs AmpC” value (Trypsin [4]) was 287879. The IC50 (AmpC β-lactamase [5]) was 0.0066 µM, the Ki (AmpC β-lactamase [5]; Ki) was 0.0008 to 0.0013 µM and the Ki (AmpC β-lactamase [5]; [8]) was 0.0008 µM. For the same compound, the Ki (AmpC β-lactamase [5]; Ki Vs AmpC, Table 7) was 0.0008 µM, the Ki (AmpC β-lactamase [5]; Ki vs AmpC, Table 8) was 0.0008 µM and the Ki (AmpC β-lactamase [5]; Ki, Table 5) was 0.0008 µM. The Ki (AmpC β-lactamase [5]; Ki, Table 10, AmpC) was 0.0008 µM, the Ligand efficiency (AmpC β-lactamase [5]; Table 5) was 0.64 and the activity at 100 µM [6] was 90%. The potency estimated from few doses [6] was 900 µM, the Ki [6] was 224 µM and the “Selectivity vs AmpC” value [6] was 136364. The inhibition at 100 µM [6] was 10%, the “Selectivity vs AmpC” value (Elastase) was 25799 and the “clinical isolates for which MICs dropped into the susceptible range (MICs≦1 μg/mL)” value [7] was 75%. For the same compound, the “MIC 25% percentile” value [7] was 0.5 µg/mL and the “MIC 75% percentile” value [7] was 1.5 µg/mL.
